One assay has as its target T1, BRD4 BD1 (Homo sapiens, UniProt O60885).
T1 construct: made in house
The assay can be described thus: AlphaScreen binding assay, BRD4 Bromodomain 1. In short, it runs like this:
(§1)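 An AlphaScreen competition format was used with His-BRD4 BD1 or BD2 and biotin-H4 K5/8/12/16-acetyl peptide, each at matched final levels of 50 nM (BD1) or 100 nM (BD2). Incubation in HEPES/NaCl buffer with 0.1% BSA and 0.01% Triton X-100 ran ≥1 h before IC50 determination.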
(In general: Alpha assays give light when donor and acceptor beads are brought close together.)

A further assay concerns the target T2, BRD4 BD2 (Homo sapiens, UniProt O60885).
T2 construct: made in house
The experiment in a line: AlphaScreen binding assay, BRD4 Bromodomain 2. A digest of the protocol:
as §1

Bounds are passed on as bounds.

Usually IC50 stands for the point on the concentration scale where inhibition reaches its midpoint. Read a low IC50 as inhibition by little substance. Turning to `CC(=O)N1c2ccc(-c3ccc(S(C)(=O)=O)cc3)cc2N(C(=O)N2CCCC2)C[C@@H]1C` [Example I-100, (S)-1-(2-methyl-6-(4-(methylsulfonyl)phenyl)-4-(pyrrolidine-1-carbonyl)-3,4-dihydroquinoxalin-1(2H)-yl)ethanone], the IC50 is greater than 10000 nM on BRD4 BD1 and 50 to 500 nM at BRD4 BD2.

On to `CC(=O)N1c2ccc(-c3cnn(C)c3C)cc2N(C(=O)c2ccco2)C[C@@H]1C` [Example I-270], for which the IC50 lay in the range of 1000 to 10000 nM on BRD4 BD1 and 50 to 500 nM on BRD4 BD2.

With `CNC(=O)c1ccc(-c2ccc3c(c2)N(C(=O)c2ccco2)C[C@H](C)N3C(C)=O)cn1` [Example I-836], the IC50 on BRD4 BD1 was 1000 to 10000 nM; at BRD4 BD2, less than 50 nM.

With `CC(=O)N1c2ccccc2N(Cc2ccc(-c3ccccc3)cc2)C[C@@H]1C` [Example I-916], the IC50 at BRD4 BD1 is greater than 10000 nM; on BRD4 BD2 it was greater than 500 nM.

Consider `CC(=O)N1c2ccccc2N(C(=O)c2csc(Nc3cccnc3)n2)C[C@@H]1C` [Example I-725], for which the figures for the IC50 at BRD4 BD1 and at BRD4 BD2 were greater than 10000 nM and greater than 500 nM, respectively.

As for `CC(=O)N1c2ccc(-c3ccc(S(C)(=O)=O)cc3)cc2N(C(=O)C(C)(C)C)C[C@@H]1C` [Example I-243], the IC50 on BRD4 BD1 is greater than 10000 nM; at BRD4 BD2 it was greater than 500 nM.

For the compound `COC(=O)N1c2ccc(-c3ccc(S(C)(=O)=O)cc3)cc2N(C(=O)Oc2cccnc2)C[C@@H]1C` [Example I-1276], the IC50 on BRD4 BD1 lay in the range of 1000 to 10000 nM; at BRD4 BD2 it was 50 to 500 nM.

Regarding `COC(=O)N1c2ccc(-c3cnn(C4CCNCC4)c3)cc2N(C(=O)Oc2cccnc2)C[C@@H]1C` [Example I-1296], the values for the IC50 on BRD4 BD1 and on BRD4 BD2 were 1000 to 10000 nM and 50 to 500 nM, respectively.

Consider `C[C@H]1CN(C(=O)C2CC2)c2cc(-c3ccc(S(=O)(=O)CCN)cc3)ccc2N1C(=O)C1CC1` [Example I-448], for which the IC50 at BRD4 BD1 is 100 to 1000 nM; at BRD4 BD2, less than 50 nM.

Regarding `COc1cccc(NC(=O)N2C[C@H](C)N(C(C)=O)c3ccc(-c4ccc(S(C)(=O)=O)cc4)cc32)c1` [Example I-967], the half-inhibitory concentration (IC50) was greater than 10000 nM on BRD4 BD1 and 50 to 500 nM at BRD4 BD2.

With `COc1cccc2[nH]c(C(=O)N3CC(C)N(C(C)=O)c4ccc(-c5ccc(S(C)(=O)=O)cc5)cc43)cc12` (centres unmarked) [Example I-883], the values for the IC50 on BRD4 BD1 and at BRD4 BD2 were greater than 10000 nM and greater than 500 nM, respectively.

On to `CC(=O)N1c2ccc(-c3ccc(S(C)(=O)=O)cc3)cc2N(C)C[C@@H]1C` [Example I-104, (S)-1-(2,4-dimethyl-6-(4-(methylsulfonyl)phenyl)-3,4-dihydroquinoxalin-1(2H)-yl)ethanone], for which the IC50 was greater than 10000 nM on BRD4 BD1 and greater than 500 nM at BRD4 BD2.

On to `CC(=O)N1c2ccccc2N(Cc2ccc3c(c2)OCO3)C[C@@H]1C` [Example I-920], for which the IC50 on BRD4 BD1 was greater than 10000 nM; on BRD4 BD2, greater than 500 nM.

Turning to `COc1ccccc1NC(=O)N1C[C@H](C)N(C(C)=O)c2ccc(-c3ccc(S(C)(=O)=O)cc3)cc21` [Example I-970], the values for the IC50 on BRD4 BD1 and on BRD4 BD2 were 1000 to 10000 nM and 50 to 500 nM, respectively.

For `COc1cncc(CN2C[C@H](C)N(C(C)=O)c3ccccc32)c1` [Example I-914], the IC50 on BRD4 BD1 is greater than 10000 nM; on BRD4 BD2, greater than 500 nM.

Regarding `CC(=O)N1c2ccccc2N(S(=O)(=O)c2ccccc2)C[C@@H]1C` [Example I-932], the IC50 is greater than 10000 nM on BRD4 BD1 and greater than 500 nM on BRD4 BD2.

For the compound `C[C@H]1CN(C(=O)c2ccco2)c2cc(-c3ccc(C(=O)N(C)C)cc3)ccc2N1C(=O)C(F)(F)F` [Example I-362], the IC50 was greater than 10000 nM at BRD4 BD1 and greater than 500 nM at BRD4 BD2.

Turning to `COc1ccc(-c2ccc3c(c2)N(C(=O)c2ccco2)C[C@H](C)N3C(C)=O)cn1` [Example I-833], the half-inhibitory concentration (IC50) on BRD4 BD1 lay in the range of 1000 to 10000 nM; at BRD4 BD2 it was 50 to 500 nM.

Regarding `CC(=O)N1c2ccccc2N(C(=O)COCC(C)C)C[C@@H]1C` [Example I-772], the IC50 at BRD4 BD1 is greater than 10000 nM; at BRD4 BD2, greater than 500 nM.

Turning to `CC(=O)N1c2ccc(-c3ccc(S(C)(=O)=O)cc3)cc2N(C(=O)c2cn3ccncc3n2)C[C@@H]1C` [Example I-779], the IC50 at BRD4 BD1 was greater than 10000 nM; on BRD4 BD2, greater than 500 nM.

`CC(=O)N1c2ccc(-c3cnn(CCS(C)(=O)=O)c3)cc2N(C(=O)Oc2ccccn2)C[C@@H]1C` [Example I-1318]: the IC50 at BRD4 BD1 was 1000 to 10000 nM; at BRD4 BD2, 50 to 500 nM.

Turning to `COC(=O)N1c2ccc(-c3ccc(NS(C)(=O)=O)cc3)cc2N(C(=O)Oc2ccccn2)C[C@@H]1C` [Example I-1317], the values for the IC50 at BRD4 BD1 and at BRD4 BD2 were 1000 to 10000 nM and 50 to 500 nM, respectively.

For the compound `CC(=O)N1c2ccccc2N(S(=O)(=O)c2ccc(Cl)cc2)C[C@@H]1C` [Example I-935], the IC50 on BRD4 BD1 is greater than 10000 nM; at BRD4 BD2, greater than 500 nM.

Take `C[C@H]1CN(C(=O)C2CC2)c2cc(-c3ccc(C(=O)NCCN)cc3)ccc2N1C(=O)C1CC1` [Example I-452]: the 50% inhibitory concentration (IC50) at BRD4 BD1 fell in the range of 1000 to 10000 nM; at BRD4 BD2 it was 50 to 500 nM.

With `COC(=O)N1c2ccc(-c3ccc(N(C)S(C)(=O)=O)cc3)cc2N(C(=O)Oc2ccccn2)C[C@@H]1C` [Example I-1331], the IC50 fell in the range of 1000 to 10000 nM on BRD4 BD1 and 50 to 500 nM at BRD4 BD2.

For `CC(=O)c1ccc(S(=O)(=O)N2C[C@H](C)N(C(C)=O)c3ccccc32)cc1` [Example I-957], the IC50 was greater than 10000 nM at BRD4 BD1 and greater than 500 nM at BRD4 BD2.

In the case of `COC(=O)N1c2ccc(-c3cn(C)nn3)cc2N(C(=O)C2CC2)C[C@@H]1C` [Example I-464], the 50% inhibitory concentration (IC50) lay within 1000 to 10000 nM on BRD4 BD1 and 50 to 500 nM at BRD4 BD2.

For the compound `COc1ccccc1CC(=O)N1C[C@H](C)N(C(C)=O)c2ccccc21` [Example I-711], the IC50 is greater than 10000 nM at BRD4 BD1 and greater than 500 nM at BRD4 BD2.

With `C[C@H]1CN(C(=O)c2ccco2)c2cc(-c3ccc(S(C)(=O)=O)cc3)ccc2N1S(C)(=O)=O` [Example I-96, (S)-furan-2-yl(3-methyl-4-(methylsulfonyl)-7-(4-(methylsulfonyl)phenyl)-3,4-dihydroquinoxalin-1(2H)-yl)methanone], the IC50 is greater than 10000 nM at BRD4 BD1 and greater than 500 nM at BRD4 BD2.

For `CC(=O)N1c2ccccc2N(C(=O)c2cc3ccccc3o2)C[C@@H]1C` [Example I-751], the concentration for half-maximal inhibition (IC50) on BRD4 BD1 was greater than 10000 nM; on BRD4 BD2, greater than 500 nM.

With `CO[C@@H](C(=O)N1C[C@H](C)N(C(C)=O)c2ccccc21)c1ccccc1` [Example I-740], the IC50 was greater than 10000 nM on BRD4 BD1 and greater than 500 nM at BRD4 BD2.

For the compound `COc1ccc(S(=O)(=O)N2C[C@H](C)N(C(C)=O)c3ccccc32)c(OC)c1` [Example I-950], the IC50 on BRD4 BD1 was greater than 10000 nM; at BRD4 BD2, greater than 500 nM.

Take `CC(=O)N1c2ccc(-c3ccc(S(C)(=O)=O)cc3)cc2N(C(=O)c2csc(-c3ccccc3)n2)C[C@@H]1C` [Example I-885]: the results for the half-inhibitory concentration (IC50) at BRD4 BD1 and on BRD4 BD2 were greater than 10000 nM and greater than 500 nM, respectively.

With `COc1cc(CN2C[C@H](C)N(C(C)=O)c3ccccc32)cc(OC)c1` [Example I-902], the concentration for half-maximal inhibition (IC50) at BRD4 BD1 is greater than 10000 nM; at BRD4 BD2, greater than 500 nM.

For `COC(=O)N1c2ccc(-c3cnn(C4CC4)c3)cc2N(C(=O)Oc2cccnc2)C[C@@H]1C` [Example I-1283], the concentration for half-maximal inhibition (IC50) on BRD4 BD1 lay within 1000 to 10000 nM; on BRD4 BD2 it was 50 to 500 nM.

Turning to `CC(=O)N1c2ccccc2N(Cc2cncn2C)C[C@@H]1C` [Example I-926], the IC50 at BRD4 BD1 is greater than 10000 nM; at BRD4 BD2, greater than 500 nM.

For `CC(=O)N1c2ccc(-c3cncnc3)cc2N(C(=O)c2ccco2)C[C@@H]1C` [Example I-821], the IC50 on BRD4 BD1 is greater than 10000 nM; on BRD4 BD2, 50 to 500 nM.

For `CC(=O)N1c2ccc(-c3cnn(-c4ccccc4)c3)cc2N(C(=O)OC(C)C)C[C@@H]1C` [Example I-334], the IC50 at BRD4 BD1 is 1000 to 10000 nM; on BRD4 BD2, greater than 500 nM.

With `CC(=O)N1c2ccc(-c3cnn(CCN4CCOCC4)c3)cc2N(C(=O)C2CC2)C[C@@H]1C` [Example I-151, (S)-1-(4-(cyclopropanecarbonyl)-2-methyl-6-(1-(2-morpholinoethyl)-1H-pyrazol-4-yl)-3,4-dihydroquinoxalin-1(2H)-yl)ethanone], the results for the 50% inhibitory concentration (IC50) at BRD4 BD1 and at BRD4 BD2 were 1000 to 10000 nM and 50 to 500 nM, respectively.

In the case of `CC(=O)N1c2ccc(-c3ccc(S(C)(=O)=O)cc3)cc2N(c2ncc(-c3ccccc3)cn2)C[C@@H]1C` [Example I-50, (S)-1-(2-methyl-6-(4-(methylsulfonyl)phenyl)-4-(5-phenylpyrimidin-2-yl)-3,4-dihydroquinoxalin-1(2H)-yl)ethanone], the IC50 was 1000 to 10000 nM at BRD4 BD1 and greater than 500 nM at BRD4 BD2.

In the case of `CC(=O)N1c2ccccc2N(C(=O)c2ccc3c(c2)CCO3)C[C@@H]1C` [Example I-717], the IC50 was greater than 10000 nM at BRD4 BD1 and greater than 500 nM on BRD4 BD2.

For the compound `CC(=O)N1c2ccccc2N(Cc2cc(C)nn2C)C[C@@H]1C` [Example I-905], the IC50 at BRD4 BD1 is greater than 10000 nM; at BRD4 BD2 it was greater than 500 nM.

As for `CC(=O)N1c2ccc(-c3ccc(S(C)(=O)=O)cc3)cc2N(C(=O)c2ccc(-c3ccccc3)o2)C[C@@H]1C` [Example I-886], the IC50 at BRD4 BD1 was greater than 10000 nM; at BRD4 BD2, 50 to 500 nM.

In the case of `CC(=O)N1c2ccccc2N(C(=O)COc2cccc3ccccc23)C[C@@H]1C` [Example I-736], the IC50 is greater than 10000 nM at BRD4 BD1 and greater than 500 nM on BRD4 BD2.

Consider `CC(=O)N1c2ccccc2N(Cc2ccc(O)cc2)C[C@@H]1C` [Example I-923], for which the IC50 was greater than 10000 nM at BRD4 BD1 and greater than 500 nM on BRD4 BD2.

On to `CC(=O)N1c2ccccc2N(Cc2ccccc2OCCN(C)C)C[C@@H]1C` [Example I-906], for which the figures for the IC50 on BRD4 BD1 and on BRD4 BD2 were greater than 10000 nM and 50 to 500 nM, respectively.

On to `CC(=O)N1c2ccccc2N(C(=O)Cc2ccc(-c3ccccc3)cc2)C[C@@H]1C` [Example I-707], for which the IC50 on BRD4 BD1 was greater than 10000 nM; at BRD4 BD2, greater than 500 nM.

With `COc1cc(F)ccc1-c1ccc2c(c1)N(C(=O)c1ccco1)C[C@H](C)N2C(C)=O` [Example I-826], the 50% inhibitory concentration (IC50) on BRD4 BD1 is greater than 10000 nM; on BRD4 BD2, greater than 500 nM.

As to `CC(=O)N1c2ccc(-c3ccc(N4CCCS4(=O)=O)cc3)cc2N(C(=O)c2ccco2)C[C@@H]1C` [Example I-424], the IC50 at BRD4 BD1 is 100 to 1000 nM; on BRD4 BD2, less than 50 nM.

The values above are taken from patent US10703764B2, “Benzopiperazine compositions as BET bromodomain inhibitors” (FORMA Therapeutics, Inc., priority 2013, dated 2020).
